Key:
[1] = tested on: kyphoscoliotic EDS patient; test: Case report: celiprolol in prevention of further arterial events in a kyphoscoliotic EDS patient; type: in vivo, human
From the text: All ruptures occurred following minor trauma. The right eye ruptured twice, the left eye once only. […] Their family history was remarkable by the death of their only and younger sibling, by spontaneous abdominal aortic rupture. Their phenotype was similar to their […] sibling's.
Physical examination evidenced major cutaneous fragility (bruising) and dystrophic scars. […] furthermore presented a severe kyphoscoliosis and diffuse joint hypermobility (Beighton score 8/9) with instability, particularly of the left shoulder (recurrent dislocations). Further osteoarticular signs were pes planus and minor pectus excavatum. […] The dissecting aneurysm of the celiac trunk also remained stable and a complete regression of the extension of the dissection to the SMA was noted. Two years later, the patient presented with similar pain in the left calf. Doppler ultrasound documented a left tibial anterior dissecting aneurysm. This second clinical event also resolved medically. Celiprolol was initiated and up-titrated to the optimally tolerated dose (400 mg/day) in prevention of further arterial events.

vascular EDS patients = vascular EDS patients taking celiprolol, compared to placebo (Ong et al., 2010); cited from earlier work

CCN(CC)C(=O)Nc1ccc(OCC(O)CNC(C)(C)C)c(C(C)=O)c1 (stereo not shown) [Celiprolol, N′-(3-Acetyl-4-(3-((1,1-dimethylethyl)amino)-2-hydroxypropoxy)phenyl)-N, N-diethylurea]
clinical course (arterial events) under celiprolol ([1]; one patient with recurrent arterial dissections, up-titrated to 400 mg/day, 3 years follow-up): remained clinically silent | systematic arterial monitoring for silent arterial defects ([1]; same patient, 400 mg/day, 3 years follow-up): did not evidence further silent arterial defects | novel arterial manifestation under celiprolol treatment ([1]; same patient, four year follow-up): without novel arterial manifestation | incidence of arterial rupture or dissection (vascular EDS patients): decreased incidence of arterial rupture or dissection
